Measurements from patent US6664267B1, “Crystalline fluoroquinolone arginine salt form” (Wockhardt Limited, priority 2002, dated 2003).
“And” between values parts separate entries of the source, which are not always exact repeats. Identical values can stand only once. Counter-ions that a name gives are not always drawn. Like-named read-outs stand apart in the source and are kept apart here.

How the values were obtained:
rodents = conditions: in vivo
[1] = mean mass diameter determination by laser diffraction; type: physicochemical; conditions: for Mean mass diameter: laser diffraction, four different samples made by the procedure of example 1, Hydrate
Source text: For mean mass diameter Master Sizer of Malvern Instrument LTD U.K. was used under the conditions listed below:
Analysis model: Polydisperse
Obstruction value: 20-23%

dissolution rate = type: physicochemical
respiratory pathogens = experiment: treating respiratory pathogens
resistant mutants = experiment: treating resistant mutants
[2] = antibacterial minimum inhibitory concentration (MIC); type: cell-based
[3] = bulk density determination; type: physicochemical
Source text: Untapped density=25 g/untapped volume.
Tapped density=25 g/Tapped volume.

Staphylococci = experiment: eradication of Staphylococci from vital organs and thigh muscle; type: in vivo; conditions: compared with the standard drugs
[4] = test system: resistant Staphylococcus aureus
rats = conditions: rat, in vivo, iv
[5] = in vivo
[6] = hygroscopicity / moisture uptake on exposure to humidity, determined gravimetrically; type: physicochemical
[7] = test system: high density bacterial inoculum; experiment: cidal effect with high density bacterial inoculum; type: cell-based; conditions: high density bacterial inoculum (10^8 cfu/ml)
[8] = test system: slow-growing Staphylococci; experiment: cidal action against slow-growing Staphylococci; type: cell-based
[9] = exposure at a relative humidity of 41%

Q: Which antimicrobial activity (antimicrobial activity) does the source give for `CC1CCc2c(N3CCC(O)CC3)c(F)cc3c(=O)c(C(=O)O)cn1c23.N=C(N)NCCC[C@H](N)C(=O)O` (racemic) [Example 8, RS-(±)-9-Fluoro-6,7-dihydro-8-(4-hydroxypiperidin-1-yl)-5-methyl-1-oxo-1H,5H-benzo[i,j]quinolizine-2-carboxylic Acid L-Arginine Salt] here?
A: The antimicrobial activity was “have antimicrobial activity”.

Q: Which antimicrobial activity (antimicrobial activity) does the source give for `CC1CCc2c(N3CCC(O)CC3)c(F)cc3c(=O)c(C(=O)O)cn1c23.N=C(N)NCCC[C@@H](N)C(=O)O` (racemic) [Example 9, RS-(±)-9-Fluoro-6,7-dihydro-8-(4-hydroxypiperidin-1-yl)-5-methyl-1-oxo-1H,5H-benzo[i,j]quinolizine-2-carboxylic Acid D-Arginine Salt] here?
A: The antimicrobial activity was “have antimicrobial activity”.

Q: For `CC1CCc2c(N3CCC(O)CC3)c(F)cc3c(=O)c(C(=O)O)cn1c23.N=C(N)NCCCC(N)C(=O)O` (racemic) [R, S-9-fluoro-6,7-dihydro-8-(4-hydroxypiperidin-1-yl)-5-methyl-1-oxo-1H,5H-benzo[i,j]-quinolizine-2-carboxylic acid DL-arginine salt], which antimicrobial activity (antimicrobial activity) is on record?
A: Its antimicrobial activity is “have antimicrobial activity”.

Q: With `C[C@@H]1CCc2c(N3CCC(O)CC3)c(F)cc3c(=O)c(C(=O)O)cn1c23.N=C(N)NCCCC(N)C(=O)O` (stereo in doubt) [R-(+)-9-fluoro-6,7-dihydro-8-(4-hydroxypiperidin-1-yl)-5-methyl-1-oxo-1H,5H-benzo[i,j]-quinolizine-2-carboxylic acid DL-arginine salt] as the compound, how does the antimicrobial activity (antimicrobial activity) read?
A: The antimicrobial activity was “have antimicrobial activity”.

Q: With `C[C@H]1CCc2c(N3CCC(O)CC3)c(F)cc3c(=O)c(C(=O)O)cn1c23.N=C(N)NCCCC(N)C(=O)O` (stereo in doubt) [S-(−)-9-fluoro-6,7-dihydro-8-(4-hydroxypiperidin-1-yl)-5-methyl-1-oxo-1H,5H-benzo[i,j]-quinolizine-2-carboxylic acid DL-arginine salt] as the compound, how does the antimicrobial activity (antimicrobial activity) read?
A: Its antimicrobial activity is “have antimicrobial activity”.

Q: Which results are given for `C[C@H]1CCc2c(N3CCC(O)CC3)c(F)cc3c(=O)c(C(=O)O)cn1c23` [Example 1, S-(−)-9-Fluoro-6,7-dihydro-8-(4-hydroxypiperidin-1-yl)-5-methyl-1-oxo-1H,5H-benzo[i,j]quinolizine-2-carboxylic Acid L-Arginine Salt Hydrate]?
A: toxicity (rodents): less toxic in rodents than the alkali salt forms; Mean mass diameter [1]: 32.92 μm and 24.22 μm and 34.51 μm and 39.07 μm; Mean mass diameter ([1]; listed as S-(−)-9-fluoro-6,7-dihydro-8-(4-hydroxypiperidin-1-yl)-5-methyl-1-oxo-1H,5H-benz): less than or equal to 40 μm; Mean mass diameter, mean value ([1]; mean of four samples of Table 1): 32.68 μm; dissolution rate (dissolution rate): acceptable dissolution rate; effectiveness in treating respiratory pathogens (respiratory pathogens): effective; effectiveness in treating resistant mutants (resistant mutants): effective; antibacterial minimum inhibitory concentration (MIC) values compared with the free acid [2]: same antibacterial minimum inhibitory concentration (MIC) values as the free active ingredient; retention of potency at acidic pH ([2]; acidic pH of 5.5): unusual ability to retain potency; bulk density (tapped) ([3]; 25 gm/tapped volume, tapped 150 times): 0.64 g/mL; bulk density (untapped) ([3]; 25 gm/untapped volume): 0.57 g/mL; eradication efficacy (Staphylococci): scores over the standard drugs; activity against resistant Staphylococcus aureus [4]: potent activity; propensity to cause phlebitis (rats): lower propensity to cause phlebitis than the sodium and potassium salts; bioavailability [5]: good bioavailability; hygroscopicity [6]: to a certain degree hygroscopic; moisture absorption compared with the sodium salt ([6]; at specified humidity levels): less prone than the sodium salt to absorb moisture; cidal effect [7]: unusual superior cidal effect; cidal action [8]: superior cidal action

Q: With `C[C@H]1CCc2c(N3CCC(O)CC3)c(F)cc3c(=O)c(C(=O)O)cn1c23.N=C(N)NCCC[C@@H](N)C(=O)O` [Example 5, S-(−)-9-Fluoro-6,7-dihydro-8-(4-hydroxypiperidin-1-yl)-5-methyl-1-oxo-1H,5H-benzo[i,j]quinolizine-2-carboxylic Acid D-Arginine Salt] as the compound, how does the antimicrobial activity (antimicrobial activity) read?
A: The antimicrobial activity was “have antimicrobial activity”.

Q: For `C[C@@H]1CCc2c(N3CCC(O)CC3)c(F)cc3c(=O)c(C(=O)O)cn1c23.N=C(N)NCCC[C@H](N)C(=O)O` [Example 6, R-(+)-9-Fluoro-6,7-dihydro-8-(4-hydroxypiperidin-1-yl)-5-methyl-1-oxo-1H,5H-benzo[i,j]quinolizine-2-carboxylic Acid L-Arginine Salt], which antimicrobial activity (antimicrobial activity) is on record?
A: Its antimicrobial activity is “have antimicrobial activity”.

Q: With `C[C@@H]1CCc2c(N3CCC(O)CC3)c(F)cc3c(=O)c(C(=O)O)cn1c23.N=C(N)NCCC[C@@H](N)C(=O)O` [Example 7, R-(+)-9-Fluoro-6,7-dihydro-8-(4-hydroxypiperidin-1-yl)-5-methyl-1-oxo-1H,5H-benzo[i,j]quinolizine-2-carboxylic Acid D-Arginine Salt] as the compound, how does the antimicrobial activity (antimicrobial activity) read?
A: The antimicrobial activity was “have antimicrobial activity”.

Q: Which “antimicrobial activity compared with the R-(+)- and RS- acids” value (antimicrobial activity) does the source give for “S-(−)-9-fluoro-6,7-dihydro-8-(4-hydroxypiperidin-1-yl)-5-methyl-1-oxo-1H,5H-benzo[i,j]quinolizine-2-carboxylic acid [reference compound]” here?
A: Its value is “more potent antimicrobial activity”.

Q: Which hygroscopicity [6, 9] does the source give for “S-(−)-9-fluoro-6,7-dihydro-8-(4-hydroxypiperidin-1-yl)-5-methyl-1-oxo-1H,5H-benzo[i,j]quinolizine-2-carboxylic acid, L-arginine salt 0.25 hydrate [reference compound]” here?
A: Its hygroscopicity is “highly hygroscopic and turn into syrups”.

Q: Which hygroscopicity [6, 9] does the source give for “S-(−)-9-fluoro-6,7-dihydro-8-(4-hydroxypiperin-1-yl)-5-methyl-1-oxo-1H,5H-benzo[i,j]quinolizine-2-carboxylic acid, L-arginine salt, 0.75 hydrate [reference compound]” here?
A: The hygroscopicity was “highly hygroscopic and turn into syrups”.
